Test results as given in patent US10676440B2, “Crystalline forms of an NK-1 antagonist” (Helsinn Healthcare SA, priority 2014, dated 2020).

Experiments:
[1] = test system: rat plasma proteins; experiment: Binding to rat plasma proteins; assay type: in vitro ADME
[2] = Brain and CSF penetration after intravenous administration in rats; assay type: in vivo; conditions: male, RoRo Fuellinsdorf, rat, brain homogenate / plasma, i.v., approximately 0.25, 0.5, 1 and 2 h, read-out: ratios of brain homogenate/plasma concentrations
Procedure: After centrifugation, plasma was removed.
The frozen half brain was weighed. After thawing, the tissue was suspended in a 2 mL eppendorf polypropylene tube with 2 volumes of sterile apyrogen and cold NaCl (+4° C.; 0.9% solution) (0.333 g brain/mL NaCl). The tissue was homogenized (ice bath) using a Vibra-Cell ultrasonic processor (Sonics & Material, Inc. Danbury, CT-USA) for 2×10 s (amplitude: 60, energy: 25). An aliquot of the resulting brain homogenate (40 μL) was used for extraction as described for plasma. 50 μL CSF with 50 μL plasma were used for extraction as described under plasma sample preparation.
Brains were taken at approximately 0.25, 0.5, 1 and 2 h after intravenous administration of Formula I into the tail vein of 8 rats (2 rats per time point). For all time points, the concentrations were higher in the brain than in the plasma, with ratios of brain homogenate/plasma concentrations of 2.4 to 4.9. The CSF was taken at the same time points and analyzed but the concentrations were low (4.9 to 16 ng/mL or below 4 ng/mL), possibly due to the high plasma protein binding.

[3] = Pilot whole body autoradiography study in rats; assay type: in vivo
[4] = in vivo; conditions: male, dog, in vivo, iv, 3 mg/kg, mean AUC(0-102 h)
Procedure: In Example 10, the pharmacokinetics of the compound of Formula I in dogs following single intravenous and oral administration was evaluated and the oral bioavailability of five different salts of the compound of Formula I was compared. The compound of Formula I was administered to dogs as described in Table 12. The doses are expressed in mg of free base.
The experiments were performed in 15 male dogs (bodyweight 11-18 kg) from RCC Ltd., Biotechnology and Animal Breeding Division, Wolferstrasse 4, CH-4414, Fullinsdorf, Switzerland. The animals were housed under standard laboratory conditions throughout the study period.
For the pharmacokinetic studies, 1 mL blood samples were collected from the cephalic vein of the dogs via catheter at 15, 30 min and at 1, 2, 3, 4, 6, 8, 24, 32, 48, 56, 72, 80, 96, and 100 (or 104) hours following oral dosing. After intravenous administration, blood samples were collected at 5, 15, 30 min and 1, 2, 3, 4, 6, 8, 24, 32, 48, 56, 75, 102, 120, 128, 144, 152, 168, 176, 192, and 200 hours. Collection tubes contained EDTA/NaF as anticoagulant and stabilizer. After centrifugation, plasma was removed and stored deep frozen at approximately −20° C. until analysis using a specific LC-MS method.
Aliquots of 40 μL plasma were mixed with 50 μL buffer at pH 5, 50 μL internal standard of Formula I (1 μg/mL in 1-chlorobutane) and 250 μL butylacetate and then shaken for 10 min. After centrifugation, 200 μL of the supernatant were evaporated to dryness at 45° C. under a stream of nitrogen. The residue was reconstituted with 200 μL acetonitrile/1% formic acid in water (30/70, v/v). Aliquots of 30 μL were injected onto the analytical column (Waters, Symmetry C8, 2.1×150 mm, 5 μm).
Separation occurred by gradient elution using a solvent A (acetonitrile) and solvent B (1% formic acid in water). The flow rate was 0.3 mL/min and the gradient elution was: […]
The sample passed to the ion-spray interface of the single quadrupole mass spectrometer. Selected ion monitoring mode (SIM) was used for mass spectrometric detection. Quantification was based on peak area ratios and calibration curve established between 2 and 5000 ng/mL.
To a 100 μL sample aliquot were added 200 μL of a mixture of acetonitrile/ethanol containing the deuterated internal standard, to precipitate plasma proteins. After vortex mixing and centrifugation, aliquots of the supernatants were transferred to 96-deel-well plates and injected for analysis (5 μL). Following enrichment and cleanup on the trapping column, the analyte was eluted and separated by gradient elution on a 2.1*30 mm analytical column (XTerra MS C18). The effluent from the analytical column was passed to the turbo ion spray vie a divert valve.
Calibration standards were prepared in dog plasma. The calibration range was from 10-5000 ng/mL. In each analytical series, a set of calibration standards was worked up and run with the unknowns. Calibration was then performed by computing a weighted (1/X^2) least-squares linear regression line of the measured peak area ratios (Y) (analyte to internal standard) versus the spiked concentrations (X). The drug concentrations of the unknown samples were then calculated from this regression line (UNICHROM). The performance of the analytical procedure during sample analysis was monitored. With each analytical series, quality control (QC) samples in dog plasma, spiked with known amounts of the analyte, were run together with the study samples.
The pharmacokinetic parameters were estimated by non-compartmental analysis, using the pharmacokinetic evaluation program WinNOnlin [1]. AUC(0-inf.) was calculated applying the linear trapezoidal rule and extrapolation to infinity using the apparent elimination rate constant kz and the calculated concentration at the last measurable time point. AUClast values were calculated by linear trapezoidal rule from time zero to time of last measureable time point.

With `Cc1ccccc1-c1cc(N2CCN(C)CC2)ncc1N(C)C(=O)C(C)(C)c1cc(C(F)(F)F)cc(C(F)(F)F)c1` [Formula I, 2-(3,5-bis(trifluoromethyl)phenyl)-N,2-dimethyl-N-(6-(4-methylpiperazin-1-yl)-4-(o-tolyl)pyridin-3-yl)propanamide] the “binding to rat plasma proteins” value [1] was 99.8%, the Kp [2] was 2.4 to 4.9 and the “distribution and elimination of the labeled compound and/or metabolites” value [3] was “extensive distribution of the labeled compound and/or metabolites as well as a very slow elimination from the body”. The AUC(0-t) [4] was 11800 ng·h/mL.
